Test results: article PMC5300872, “Convergent evolution of the arginine deiminase pathway: the ArcD and ArcE arginine/ornithine exchangers” (MicrobiologyOpen, 2016)

Biological target: T1, ArcD1 (Lactococcus cremoris, UniProt A2RNI5)
T1 construct: plasmid pNZarcD1, nisin-inducible; expressed in L. lactis deltaarcD1D2 cells
T1 sequence (A2RNI5 1-526): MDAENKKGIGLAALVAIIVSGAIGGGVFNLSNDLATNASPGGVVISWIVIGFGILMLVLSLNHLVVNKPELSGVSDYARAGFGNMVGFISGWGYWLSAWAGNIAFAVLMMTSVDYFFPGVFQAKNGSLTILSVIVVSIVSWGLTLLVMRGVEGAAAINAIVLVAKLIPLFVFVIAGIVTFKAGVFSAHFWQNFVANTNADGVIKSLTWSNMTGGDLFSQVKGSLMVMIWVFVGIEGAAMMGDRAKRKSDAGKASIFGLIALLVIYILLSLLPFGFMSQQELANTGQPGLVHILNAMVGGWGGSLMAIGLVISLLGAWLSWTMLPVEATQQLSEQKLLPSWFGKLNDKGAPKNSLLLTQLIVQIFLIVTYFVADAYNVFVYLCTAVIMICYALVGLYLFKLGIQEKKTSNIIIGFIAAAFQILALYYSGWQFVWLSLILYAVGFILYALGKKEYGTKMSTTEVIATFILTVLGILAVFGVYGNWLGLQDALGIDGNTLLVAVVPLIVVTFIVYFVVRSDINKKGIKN
Assay: inhibition of […]L-ornithine uptake in resting cells
Format: cell-based
Conditions: read-out: ArcD1 / KI ^b (μm)

Ki: 529 ± 135 µM
Compound: NC(=O)NCCC[C@H](N)C(=O)O [L‐Citr, L‐citrulline]
